This note sets out measurements from US6492335B1, “Glycoconjugates from modified camptothecin derivatives (20-O-linkage)” (Bayer Aktiengesellschaft, priority 1996, dated 2002).

The subject of series [1] is SW 480. The series can be described thus: Growth inhibition test (MTT) for cytotoxic properties. The series is classed as cell-based, human. Here is the method:
(§1) The human large intestine cell lines SW 480 and HT 29 (ATCC No. CCL 228 and HBT 38) and the mouse melanoma cell line B16F10 were grown in Roux dishes in RPMI 1640 medium with addition of 10% FCS. They were then trypsinized and taken up in RPMI plus 10% FCS to a cell count of 50,000 cells/ml. 100 μl of cell suspension/well were added to a 96 microwell plate and incubated for 1 day at 37° C. in a CO2 incubator. A further 100 μl of RPMI Medium and 1 μl of DMSO containing the test substances were then added. The growth was checked after day 3 and day 6. To this end, 40 μl of MTT solution (3-(4,5-dimethylthiazol-2-yl)-2,5-diphenyltetrazoline bromide) having a starting concentration of 5 mg/ml of H2O were added to each microwell. Incubation was carried out for 5 hours in a CO2 incubator at 37° C. The medium was then aspirated and 100 μl of i-propanol/well were added. After shaking for 30 min with 100 μl of H2O, the extinction was measured at 540 nm using a Titertek Multiscan MCC/340 (Flow).
(§2) The cytotoxic action is indicated in Table 1 as the IC50 value in each case for the SW 480 and HT 29 and B16F10 cell lines: […]

Series [2] has as its system HT 29. Described as above. The series is classed as cell-based, human. The protocol: as §1, §2
For series [3], the system named is B16F10. The series is described as above. The series is classed as cell-based, mouse. Here is the method:
as §1, §2

Series [4] in a line: In vivo inhibition of tumour growth in the nude mouse model. The following applies: NMRI nu/nu, mouse, in vivo, ip; nude mice, i.p. on day 1, 2 and 3; read-out: Maximum tolerable dose (MTD). Here is the method:
(§3) For all in vivo experiments for investigation of the inhibition of tumour growth athymic nude mice (NMRI nu/nu strain) were used. The selected large-cell lung carcinoma LXFL 529 was grown by serial passage in nude mice. The human origin of the tumour was confirmed by isoenzymatic and immunohistochemical methods.
(§4) The tumour was implanted subcutaneously into both flanks of 6 to 8 week old nu/nu nude mice. The treatment was started, depending on the doubling time, as soon as the tumours had reached a diameter of 5-7 mm. The mice were assigned to the treatment group and the control group (5 mice per group with 8-10 assessable tumours) by randomization. The individual tumours of the control group all grew progessively.
(§5) The size of the tumours was measured in two dimensions by means of a slide gauge. The tumour volume, which correlated well with the cell count, was then used for all evaluations. The volume was calculated according to the formula “length×breadth×breadth/2” ([a×b^2]/2, a and b represent two diameters at right angles).
(§6) The values of the relative tumour volume (RTV) were calculated for each individual tumour by dividing the tumour size on day X with the tumour size on day 0 (at the time of randomization). The mean values of the RTV were then used for the further evaluation.
(§7) The inhibition of the increase of the tumour volume (tumour volume of the test group/control group, T/C, in per cent) was the final measured value.
(§8) The administration of the compounds was carried out intraperitoneally (i.p.) on day 1, 2 and 3 after randomization.

Series [5] has as its system large-cell lung carcinoma LXFL 529. Described as above. As to conditions: for Survival time: individual mice. The protocol: as §3, §4, §5, §6, §7, §8
In series [6] the test system is mouse bone marrow stem cells. The series can be described thus: Inhibition of the CSF-induced proliferation of mouse bone marrow stem cells (colony formation). The following applies: recombinant murine GM-CSF, 7 days.
Experimental: Bone marrow cells were washed out of mice femurs. 10^5 cells were incubated at 37° C. and 7% CO2 in McCoy 5A medium (0.3% agar) together with recombinant murine GM-CSF (Genzyme; stem cell colony formation) and the substances (10^−4 to 100 μg/ml). 7 days later, the colonies (<50 cells) and clusters (17-50 cells) were counted.
The mark [7] stands for this setting: SW480, human large intestine cell line SW 480, MTT, read-out: IC50 SW 480.
The mark [8] stands for this setting: human large intestine cell line HT 29, MTT, read-out: IC50 HT 29.
[9] abbreviates: B16-F10, mouse melanoma cell line B16F10, MTT, read-out: IC50 B16F10.
Where [10] appears, read: 6.25 mg/kg/day i.p. on day 1, 2 and 3.
Setting [11] is: 12.5 mg/kg/day (MTD) i.p. on day 1, 2 and 3.

“And” between values parts separate entries of the source, which are not always exact repeats. Identical values can stand only once. Counter-ions that a name gives are not always drawn. Like-named read-outs stand apart in the source and are kept apart here.

`CC[C@@]1(OC(=O)[C@H](CC(C)C)NC(=O)[C@H](CCCCN)NC(=S)Nc2ccc(O[C@H]3O[C@@H](C)[C@@H](O)[C@@H](OC)[C@@H]3O)cc2)C(=O)OCc2c1cc1n(c2=O)Cc2c-1nc1cc3c(cc1c2CN1CCN(C)CC1)OCCO3` [Example 5.1, 20(S)-7-[4-(Methylpiperazino)methy]-10,11-(ethylenedioxy)-20-O-{N^α-[O-(3-O-methyl-β-L-fucopyranosyl)4-hydroxy-phenylamino-thiocarbonyl-lysyl-leucyl}-camptothecin, hydrochloride]: the IC50 in series [1] (setting [7]) came to 70 nM; in series [2] (setting [8]), 40 nM; in series [3] (setting [9]), 200 nM.

`CCc1c2c(nc3ccccc13)-c1cc3c(c(=O)n1C2)COC(=O)[C@@]3(CC)OC(=O)[C@H](C)NC(=O)[C@H](CCCCNC(=S)Nc1ccc(OC2O[C@@H](C)[C@@H](O)[C@@H](OC)[C@@H]2O)cc1)NC(=S)Nc1ccc(OC2O[C@@H](C)[C@@H](O)[C@@H](OC)[C@@H]2O)cc1` (stereo partly drawn) [Example 1.1, 20(S)-7-Ethyl-20-O-{N^α, N^ε-bis-[O-(3-O-methyl-β-L-fucopyranosyl)-4-hydroxy-phenylamino-thiocarbony]-lysyl-alanyl}-camptothecin]: the values for the IC50 in series [1] (setting [7]), in series [2] (setting [8]) and in series [3] (setting [9]) were 15 nM, 10 nM and 30 nM, respectively. The maximum tolerated dose (MTD) at 3 days in series [4] is 12.5 mg/kg/day. The “Relative body weight on day 7” value in series [5] (setting [10]) is 98 % of day 0; in series [5] (setting [11]), 95 % of day 0. Besides, the “Relative tumour volume on day 14” value is given as 32 % of day 0 in series [5] (setting [10]) and 0.1 % of day 0 in series [5] (setting [11]). In addition, the Survival time in series [5] (setting [10]) is >21 days (4×) and 13 days; in series [5] (setting [11]), greater than 21 days.

In the case of `CC[C@@]1(OC(=O)[C@H](C)NC(=O)[C@H](CCCCNC(=S)Nc2ccc(OC3O[C@@H](C)[C@@H](O)[C@@H](OC)[C@@H]3O)cc2)NC(=S)Nc2ccc(OC3O[C@@H](C)[C@@H](O)[C@@H](OC)[C@@H]3O)cc2)C(=O)OCc2c1cc1n(c2=O)Cc2c-1nc1ccccc1c2COC(=O)[C@H](C)NC(=O)[C@H](CCCCNC(=S)Nc1ccc(OC2O[C@@H](C)[C@@H](O)[C@@H](OC)[C@@H]2O)cc1)NC(=S)Nc1ccc(OC2O[C@@H](C)[C@@H](O)[C@@H](OC)[C@@H]2O)cc1` (stereo partly drawn) [Example 4.1, 20(S)-7-{N^α,N^ε-bis-[O-(3-O-Methyl-β-L-fucopyranosyl)-4-hydroxy-phenylamino-thiocarbonylmino-thiocarbonyl]-lysyl-alanyloxymethyl}-20-O-{N^α,N^ε-bis-[O-(3-O-methyl-β-L-fucopyranosyl)-4-hydroxy-phenylamino-thiocarbonyl]-lysyl-alanyl}-camptothecin], the half-maximal inhibitory concentration (IC50) in series [1] (Homo sapiens, SW480, read-out: IC50 SW 480) came out at 40 nM; in series [2] (Homo sapiens, HT-29, read-out: IC50 HT 29), 40 nM; in series [3] (Mus musculus, B16-F10, read-out: IC50 B16F10), 300 nM.

As for `CC[C@@]1(OC(=O)[C@H](CC(C)C)NC(=O)[C@H](CCCCN)NC(=S)Nc2ccc(O[C@H]3O[C@@H](C)[C@@H](O)[C@@H](OC)[C@@H]3O)cc2)C(=O)OCc2c1cc1n(c2=O)Cc2cc3cc4c(cc3nc2-1)OCO4` [Example 2.4, 20(S)-10,11-Methylenedioxy-20-O-{N^α-[O-(3-O-methyl-β-L-fucopyranosyl)-4-hydroxy-phenylamino-thiocarbonyl]-lysyl-leucyl}-camptothecin, hydrochloride], the half-maximal inhibitory concentration (IC50) in series [1] (setting [7]) is 5 nM; in series [2] (setting [8]), 3 nM; in series [3] (setting [9]) it was 10 nM.

With `CCc1c2c(nc3ccc(O)cc13)-c1cc3c(c(=O)n1C2)COC(=O)C3(CC)OC(=O)[C@@H](NC(=O)[C@H](CCCCN)NC(=S)Nc1ccc(OC2OC(C)C(O)C(OC)C2O)cc1)C(C)C` (stereo partly drawn) [Example 6.1, 7-Ethyl-10-hydroxy-20-O-{N^α-[O-methyl-β-L-fucopyranosyl)-4-hydroxy-phenylamino-thiocarbonyl]-lysyl-valyl}-camptothecin, hydrochloride], the IC50 in series [1] (setting [7]) was determined as 150 nM; in series [2] (setting [8]), 200 nM; in series [3] (setting [9]) it was 3000 nM.

In the case of `CCc1c2c(nc3ccccc13)-c1cc3c(c(=O)n1C2)COC(=O)[C@]3(O)CC` [7-ethyl-camptothecin], the “IC50, inhibition of the CSF-induced proliferation of mouse bone marrow stem cells” value in series [6] was 0.002 ng/mL.

As for `CC[C@@]1(O)C(=O)OCc2c1cc1n(c2=O)Cc2cc3c(N)cccc3nc2-1` [9-amino-camptothecin], the “IC50, inhibition of the CSF-induced proliferation of mouse bone marrow stem cells” value in series [6] was found to be 1 ng/mL.

On to `CC[C@@]1(OC(=O)[C@H](C)NC(=O)[C@H](CCCCNC(=S)Nc2ccc(OC3O[C@@H](C)[C@@H](O)[C@@H](OC)[C@@H]3O)cc2)NC(=S)Nc2ccc(OC3O[C@@H](C)[C@@H](O)[C@@H](OC)[C@@H]3O)cc2)C(=O)OCc2c1cc1n(c2=O)Cc2cc3c(N)cccc3nc2-1` (stereo partly drawn) [Example 3.1, 20(S)-9-Amino-20-O-{N^α,N^ε-bis-[O-(3-O-methyl-β-L-fucopyranosyl)4-hydroxy-phenylamino-thiocarbonyl]-lysyl-alanyl}-camptothecin], for which the figures for the IC50 in series [1] (setting [7]), in series [2] (setting [8]) and in series [3] (setting [9]) were 10 nM, 8 nM and 150 nM, respectively.

For `CCC1(OC(=O)C(C)NC(=O)[C@H](CCCCN)NC(=S)Nc2ccc(OC3OC(C)C(O)C(OCC(=O)O)C3O)cc2)C(=O)OCc2c1cc1n(c2=O)Cc2cc3cc4c(cc3nc2-1)OCO4` (stereo partly drawn) [Example 2.3, 20(S)-10,11-Methylenedioxy-20-O-{N^α-[O-(3-O-carboxymethyl-β-L-fucopyranosyl)-4-hydroxy-phenylamino-thiocarbonyl]-lysyl-alanyl}-camptothecin, hydrochloride], the IC50 was found to be 6 nM in series [1] (setting [7]), 3 nM in series [2] (setting [8]) and 9 nM in series [3] (setting [9]).

On to `CCc1c2c(nc3ccccc13)-c1cc3c(c(=O)n1C2)COC(=O)C3(CC)OC(=O)[C@@H](NC(=O)[C@H](CCCCN)NC(=S)Nc1ccc(OC2OC(C)C(O)C(OC)C2O)cc1)C(C)C` (stereo partly drawn) [Example 1.5, 7-Ethyl-20-O-{N^α-[O-(3-O-methyl-β-L-fucopyranosyl)-4-hydroxyl-phenyl-amino-thiocarbonyl]-lysyl-valyl)-camptothecin, hydrochloride], for which the IC50 worked out at 100 nM in series [1] (setting [7]), 60 nM in series [2] (setting [8]) and 300 nM in series [3] (setting [9]).

Regarding `CCC1(OC(=O)[C@H](C)NC(=O)[C@H](CCCCNC(=S)Nc2ccc(OC3O[C@@H](C)[C@@H](O)[C@@H](OC)[C@@H]3O)cc2)NC(=S)Nc2ccc(OC3O[C@@H](C)[C@@H](O)[C@@H](OC)[C@@H]3O)cc2)C(=O)OCc2c1cc1n(c2=O)Cc2cc3cc4c(cc3nc2-1)OCO4` (stereo partly drawn) [Example 2.1, 20(R,S)-10,11-Methylenedioxy-20-O-{N^α,N^ε-bis-[O-(3-O-methyl-β-L-fucopyranosyl)-4-hydroxy-phenylamino-thiocarbonyl]-lysyl-alanyl}-camptothecin], the concentration for half-maximal inhibition (IC50) in series [1] (setting [7]) turned out to be 7 nM; in series [2] (setting [8]), 5 nM; in series [3] (setting [9]), 15 nM.
